Assays:
MEC-1 cells = assay: MEC-1 cell line apoptosis, viability, MCL-1/BCL-2 and cell cycle (flow cytometry); type: cell-based
Procedure: The MEC-1 cell line was obtained from the DSMZ (Braunschweig, Germany) and was cultured in RPMI (10% fetal bovine serum). A LDC526 stock solution was prepared with DMSO, diluted and added to the cultures to reach the specified concentrations. Samples (percentage of CD19+CD5+ CLL cells >90%) of n=37 CLL patients (Table 1) and n=6 healthy normal donor controls were used for experiments after obtaining informed consent according to institutional guidelines, approved by the Ethics Commission of the University of Essen-Duisburg. Peripheral blood mononuclear cells (PBMC) were isolated using Lymphoprep ([…] Technologies, Cologne, Germany) density gradient centrifugation and were used directly for NSG transplantation or in vitro experiments. Untouched normal donor B cells were isolated with a B cell isolation kit (Miltenyi, Bergisch Gladbach, Germany) according to the manufacturer’s instructions. For in vitro experiments, cells were maintained in RPMI supplemented with 10% fetal bovine serum, penicillin and streptomycin.
Apoptosis and cell death were determined by using Annexin V (BD Biosciences, Heidelberg, Germany) and 4′,6-Diamidin-2-phenylindol (DAPI, Sigma-Aldrich) staining. Erythrocytes of murine peripheral blood samples were lysed with NH4Cl hypotonic solution. Single cell suspensions of murine spleens were prepared as previously described. Murine cells were stained with antibodies directed against murine CD3 (clone 145-2C11), CD5 (53-7.3) and CD19 (1D3), respectively. For the detection of human cells in NSG spleens antibodies against human CD3 (clone SK7), CD4 (SK3), CD5 (L17F12), CD8 (SK1), CD19 (J3-119 or SJ25C1) and CD45 (2D1) were used (purchased from BD Bioscience, Biolegend and Beckman Coulter). Flow cytometric analysis was carried out on a LSRII flow cytometer (BD Biosciences, Heidelberg, Germany). Flow cytometric data were analyzed with BD FACSDiva or FlowJo software (FLOWJO, LLC, Ashland, OR, USA). Intracellular staining for MCL-1 and BCL-2 (anti-MCL-1 [clone D2W9E, Cell Signaling Technology, Leiden, The Netherlands] and matched isotype control [clone DA1E, Cell Signaling Technology]; anti-BCL-2 [clone Bcl-2/100, BD Bioscience] and matched isotype control [clone MOPC-21, BD Bioscience]) within MEC-1 and primary CLL cells was performed with the FoxP3 / Transcription factor staining buffer set (eBioscience/Thermo Fisher Scientific, Dreieich, Germany) according to the manufacturer’s instructions. Before permeabilization and antibody incubation cells were stained with a fixable viability dye (eFluor 450, eBioscience/Thermo Fisher Scientific). Before adding the anti-MCL-1 and anti-BCL-2 antibodies permeabilized cells were blocked with 2% mouse serum and 2% rabbit serum (Sigma-Aldrich) in permeabilization buffer. Intracellullar murine lymphocyte staining for Bcl-2 was carried out with the BD Cytofix/Cytoperm kit according to the manufacturer’s instructions. A Hamster Anti-mouse Bcl-2 (clone 3F119, BD Biosciences) and a corresponding isotype control (clone A19-3) were used. Dead cells and doublets were excluded by and FSC/SSC gating and positive DAPI or eFluor 450 viability dye staining, respectively. To assess the impact of LDC526 on the cell-cycle status of MEC-1 cells we used the BrdU Flow Kit according to the manufacturer’s protocol (BD Bioscience). […]
Data were analyzed with GraphPad Prism 7 software. Differences were assessed by unpaired or paired Student t tests if not indicated otherwise. […]

CDK4 = CDK4 (Homo sapiens, UniProt P11802); assay: FRET-based LANCE Ultra in vitro enzymatic kinase assay, CDK4; type: biochemical
Procedure: IC50 values for CDK inhibitors were determined using the fluorescence resonance energy transfer (FRET)-based LANCE Ultra KinaSelect Ser/Thr kit (Perkin Elmer). Kinase activity and inhibition were measured according to the manufacturer’s instructions and as previously described. […] FRET signals were recorded in a time-resolved manner in a Perkin Elmer EnVision reader. Purified cyclin-kinase pairs were obtained from the following suppliers: Carna Biosciences (CDK1-Cyclin B1, CDK6-Cyclin D3, CDK7-Cyclin H-MAT1), ProQinase (CDK2-Cyclin A) and Invitrogen (CDK9-Cyclin T1).
Data were analyzed with GraphPad Prism 7 software. Differences were assessed by unpaired or paired Student t tests if not indicated otherwise. Two-sided probabilities of less than 0.05 were considered significant. Nonlinear regression sigmoidal dose-response curve fit was used to determine the IC50 values and to generate graphs.

CDK4, sequence (P11802 whole entry): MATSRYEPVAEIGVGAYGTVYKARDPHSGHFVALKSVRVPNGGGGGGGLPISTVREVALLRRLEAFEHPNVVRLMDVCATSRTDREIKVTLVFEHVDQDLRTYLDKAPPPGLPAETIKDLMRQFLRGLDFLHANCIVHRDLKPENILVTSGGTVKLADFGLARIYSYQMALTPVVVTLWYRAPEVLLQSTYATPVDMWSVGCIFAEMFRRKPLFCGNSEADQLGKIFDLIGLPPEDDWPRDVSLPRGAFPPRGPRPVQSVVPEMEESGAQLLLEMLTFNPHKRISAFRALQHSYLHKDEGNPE
CDK4, sequence (P24385 whole entry partner): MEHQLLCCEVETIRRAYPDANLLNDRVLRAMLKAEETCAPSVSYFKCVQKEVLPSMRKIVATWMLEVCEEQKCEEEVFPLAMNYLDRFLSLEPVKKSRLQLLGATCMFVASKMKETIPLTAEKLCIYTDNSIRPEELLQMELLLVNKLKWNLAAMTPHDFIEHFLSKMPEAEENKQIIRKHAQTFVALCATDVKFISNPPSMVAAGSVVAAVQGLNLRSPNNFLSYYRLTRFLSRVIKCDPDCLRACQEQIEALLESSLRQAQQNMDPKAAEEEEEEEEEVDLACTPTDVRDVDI

## COc1cc(F)ccc1-c1ncnc(Nc2cccc(CS(N)(=O)=O)c2)n1 [LDC526, (3-((4-(4-fluoro-2-methoxyphenyl)-1,3,5-triazin-2-yl)amino)phenyl)methane-sulfonamide]
MEC-1 cells; 4 hours, 500 nM and 1 μM
  MEC-1 apoptosis (Annexin V+, DAPI-): significantly increased MEC-1 apoptosis
MEC-1 cells; 4 hours, increasing concentrations
  intracellular MCL-1 protein levels in MEC-1: reduced
MEC-1 cells; 24 hours, 10 μM
  MEC-1 S-phase entry (BrdU): significantly decreased
MEC-1 cells; 24 hours, concentrations up to 1 μM
  MEC-1 cell cycle (BrdU): did not alter the cell cycle
MEC-1 cells; Homo sapiens, MEC1, 48 hours incubation, read-out: IC50, MEC-1 absolute viable cell numbers
  IC50: 550 nM
CDK4
  selectivity versus CDK9 compared to CDK4: 291 fold
